What was measured:
[1] = tested on: CYP enzymes in human liver microsomes (HLM); experiment: Inhibition of 20-HETE production in human liver microsomes (HLM); type: biochemical
Summary of the method: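 Liver microsomes (human or mouse) or recombinant CYP4F2 or CYP4A11 in potassium phosphate buffer mixed with compound, then with 400 μM substrate solution (stock). After 10 min preincubation at 37 °C, reaction started with 6 mM NADPH solution (stock) and run 25 min at 37 °C. 20-HETE formation quantified by LC-MS/MS; IC50 from a four-parameter Hill fit, with percent inhibition also reported at 1000, 500 or 100 nM.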

[2] = tested on: CYP enzymes in mouse liver microsomes (MLM); experiment: Inhibition of 20-HETE production in mouse liver microsomes (MLM); type: biochemical
Procedure: (§1) Experimental principle: The inhibitory activity of 20-HETE production is evaluated by testing the inhibitory effects of the compound on human liver microsomes (HLM), rat liver microsomes (RLM), mouse liver microsomes (MLM), or […] CYP4 subtype enzymes (CYP4F2). This assay employs HLM, RLM, or MLM along with recombinant CYP4F2 (rCYP4F2) and recombinant CYP4A11 (rCYP4A11), which are […] CYP4 subtype enzymes, to detect the effects of the test compound at different concentrations on the metabolic rate of enzyme-specific substrates, to determine the inhibitory effects of the test compound on CYP enzymes in HLM, RLM, or MLM.
(§2) Experimental methods: Dissolve the test compound in DMSO, and subsequently dilute it with an acetonitrile and DMSO mixture (3:1). Add 2 μl of varying concentrations of the test compound and 100 μl of potassium phosphate buffer containing either liver microsomes or recombinant enzymes to a 96-well plate. After mixing well, transfer 30 μl to another well (in duplicate), add 15 μl of 400 μM substrate solution, and mix well again. Preheat at 37° C. for 10 minutes, and then add 15 μl of 6 mM NADPH and incubate at 37° C. for 25 minutes. After 25 minutes, add 160 μl of acetonitrile solution (containing 0.1 μg/ml internal standard) to stop the reaction. Mix well, centrifuge at 3500 g for 15 minutes, and then analyze the supernatant using LC-MS/MS.
(§3) Plot the compound concentration on the x-axis and the inhibition rate on the y-axis to draw the curve. Use GraphPad Prism 5 software to fit the curve and calculate the IC50. The formula is Y=Bottom+(Top−Bottom)/(1+10^((Log IC50−X)×HillSlope)). X represents the logarithmic concentration of the inhibitor, and Y represents the relative enzyme activity at a given inhibitor concentration (relative to the condition without the inhibitor).
(§4) Calculate the inhibition percentages at concentrations of 1000 nM, 500 nM, or 100 nM as well as the half-maximal inhibitory concentration (IC50) of the test compound from the above experiment.

[3] = tested on: CYP enzymes in rat liver microsomes (RLM); experiment: Inhibition of 20-HETE production in rat liver microsomes (RLM); type: biochemical
Procedure: as §1, §2, §3, §4

[4] = Pharmacokinetic (PK) experiment, oral administration in rats; type: in vivo, Male SD rats; settings: 20 mg/kg
Procedure: Male SD rats, weighing 180-250 grams, were fasted overnight before testing. The test compound was dissolved in 30% sulfobutylether-β-cyclodextrin and administered orally at a dose of 20 mg/kg. Blood was collected from the tail vein at 15 minutes, 30 minutes, and 1, 2, 4, 6, 8, and 24 hours after administration. Approximately 0.3 ml of blood was collected at each time point, placed in a centrifuge tube containing K2-EDTA, and centrifuged (2000 g for 10 minutes at 4° C.) to take the plasma, which was then stored in an ultra-low temperature freezer at −70° C. or below. A 50 μL plasma sample was mixed with 135 μL of acetonitrile (containing 0.5 μg/mL internal standard) and vortexed for protein precipitation. After centrifugation, the supernatant was taken for LC-MS/MS analysis.

SMILES	HLM (% inh @ 100 nM) [1]	MLM (% inh @ 1000 nM) [2]	IC50 [1]	HLM (% inh @ 500 nM) [1]	RLM (% inh @ 500 nM) [3]	IC50 [2]	IC50 [3]	further results
O=C(C1CCOC1)N1CCC(c2ccc(-c3cn[nH]c3)cc2F)CC1 (centres unmarked) [Compound 144, (4-(2-fluoro-4-(1H-pyrazol-4-yl)phenyl)piperidin-1-yl)(tetrahydrofuran-3-yl) methanone]	87.74%	60.66%						
C[C@@H]1CN(c2ccc(-c3cn[nH]c3)c(F)c2F)CCN1C(=O)N1CCCC1 [Compound 103, (R)-(4-(2,3-difluoro-4-(1H-pyrazol-4-yl)phenyl)-2-methylpiperazin-1-yl)(pyrrolidin-1-yl) methanone]			12 nM	80.55%	74.73%	743 nM		
O=C(Nc1ccccc1)C1CCN(c2ccc(-c3cn[nH]c3)cc2)CC1 [Compound 58, 1-(4-(1H-pyrazol-4-yl)phenyl)-N-phenylpiperidine-4-carboxamide]			16.6 nM		44.45%	1570 nM		
O=C(N1CCCC1)N1CC2CN(c3ccc(-c4cn[nH]c4)c(F)c3F)CC2C1 (centres unmarked) [Compound 127, (5-(2,3-difluoro-4-(1H-pyrazol-4-yl)phenyl)hexahydropyrrolo[3,4-c]pyrrol-2 (1H)-yl)(pyrrolidin-1-yl) methanone]			18.3 nM		74.10%	1900 nM	17.9 nM	
O=C1CCCCCN1CC1CCN(c2ccc(-c3cn[nH]c3)cc2F)CC1 [Compound 161, 1-((1-(2-fluoro-4-(1H-pyrazol-4-yl)phenyl)piperidin-4-yl)methyl) azepan-2-one]	86.45%	59.36%						
O=C(CC1CCCC1)N1CCC(c2ccc(-c3cn[nH]c3)c(F)c2F)CC1 [Compound 93, 2-cyclopentyl-1-(4-(2,3-difluoro-4-(1H-pyrazol-4-yl)phenyl)piperidin-1-yl)ethan-1-one]				91.77%	80.86%	296 nM		
O=C1CCC(C(=O)N2CCC(c3ccc(-c4cn[nH]c4)c(F)c3F)CC2)CC1 [Compound 107, 4-(4-(2,3-difluoro-4-(1H-pyrazol-4-yl)phenyl)piperidine-1-carbonyl)cyclohexane-1-one]			23.6 nM		69.55%	720 nM	33.4 nM	
O=C(N1CCC(c2ccc(-c3cn[nH]c3)c(F)c2F)CC1)C1(O)CCCCC1 [Compound 110, (4-(2,3-difluoro-4-(1H-pyrazol-4-yl)phenyl)piperidin-1-yl)(1-hydroxycyclohexyl) methanone]			16.1 nM	92.92%	77.32%	174 nM	29.5 nM	
O=C(N1CCC(c2ccc(-c3cn[nH]c3)cc2F)CC1)C1(O)CCCCC1 [Compound 140, (4-(2-fluoro-4-(1H-pyrazol-4-yl)phenyl)piperidin-1-yl)(1-hydroxycyclohexyl) methanone]			17.6 nM			1520 nM		

Further lines, with some results ahead:

HLM (% inh @ 100 nM) [1]	MLM (% inh @ 1000 nM) [2]	IC50 [1]	HLM (% inh @ 500 nM) [1]	RLM (% inh @ 500 nM) [3]	IC50 [2]	IC50 [3]	SMILES	further results
84.56%	40.18%						COC1(C(=O)N2CCC(c3ccc(-c4cn[nH]c4)cc3)CC2)CCCCC1 [Compound 150, (4-(4-(1H-pyrazol-4-yl)phenyl)piperidin-1-yl)(1-methoxycyclohexyl) methanone]	
87.34%		19.4 nM			664 nM		O=C(N1CCC(c2ccc(-c3cn[nH]c3)cc2F)CC1)N1Cc2ccccc2C1 [Compound 136, (4-(2-fluoro-4-(1H-pyrazol-4-yl)phenyl)piperidin-1-yl)(isoindolin-2-yl) methanone]	
86.67%	60.45%						O=C(C1CCC(O)C1)N1CCC(c2ccc(-c3cn[nH]c3)cc2F)CC1 (single isomer, unassigned) [Compound 145a, (4-(2-fluoro-4-(1H-pyrazol-4-yl)phenyl)piperidin-1-yl)(3-hydroxycyclopentyl) methanone]	
		11.1 nM	79.54%		1520 nM	9.78 nM	C[C@H]1CN(c2ccc(-c3cn[nH]c3)c(F)c2F)CCN1C(=O)N1CCCC1 [Compound 105, (S)-(4-(2,3-difluoro-4-(1H-pyrazol-4-yl)phenyl)-2-methylpiperazin-1-yl)(pyrrolidin-1-yl) methanone]	
88.49%	48.10%						CC(C)(O)CNC(=O)N1CCC(c2ccc(-c3cn[nH]c3)cc2F)CC1 [Compound 152, 4-(2-fluoro-4-(1H-pyrazol-4-yl)phenyl)-N-(2-hydroxy-2-methylpropyl)piperidine-1-carboxamide]	
88.15%	59.36%						O=C(N1CCC(c2ccc(-c3cn[nH]c3)cc2F)CC1)C1(F)CCCCC1 [Compound 141, (4-(2-fluoro-4-(1H-pyrazol-4-yl)phenyl)piperidin-1-yl)(1-fluorocyclohexyl) methanone]	
		7.62 nM			414 nM	22.8 nM	CC1CN(c2ccc(-c3cn[nH]c3)cc2F)CC(C)N1C(=O)N1CCCC1 (centres unmarked) [Compound 130, (4-(2-fluoro-4-(1H-pyrazol-4-yl)phenyl)-2,6-dimethylpiperazin-1-yl)(pyrrolidin-1-yl) methanone]	
88.49%	48.10%						O=C(C1CCC(O)C1)N1CCC(c2ccc(-c3cn[nH]c3)cc2F)CC1 (single isomer, unassigned) [Compound 145b, (4-(2-fluoro-4-(1H-pyrazol-4-yl)phenyl)piperidin-1-yl)(3-hydroxycyclopentyl) methanone]	
		32.8 nM	88.29%	74.61%	1850 nM		O=C(C1CCCC1)N1CCC2(CCN(c3ccc(-c4cn[nH]c4)cc3F)C2)C1 (centres unmarked) [Compound 124, cyclopentyl(7-(2-fluoro-4-(1H-pyrazol-4-yl)phenyl)-2,7-diazaspiro[4.4]nonan-2-yl) methanone]	
83.42%	47.54%						O=C(C1CCCCC1O)N1CCC(c2ccc(-c3cn[nH]c3)cc2F)CC1 (single isomer, unassigned) [Compound 149b, (4-(2-fluoro-4-(1H-pyrazol-4-yl)phenyl)piperidin-1-yl)(2-hydroxycyclohexyl) methanone]	
		25.6 nM			2420 nM		O=C(N1CCN(c2ccc(-c3cn[nH]c3)cc2F)CC1)C1(O)CCCCC1 [Compound 132, (4-(2-fluoro-4-(1H-pyrazol-4-yl)phenyl)piperazin-1-yl)(1-hydroxycyclohexyl) methanone]	
		23.2 nM	91.17%	84.57%	2810 nM	10.7 nM	O=C(N1CCC(c2ccc(-c3cn[nH]c3)cc2F)CC1)N1CC2CCCC2C1 (centres unmarked) [Compound 106, (4-(2-fluoro-4-(1H-pyrazol-4-yl)phenyl)piperidin-1-yl)(hexahydrocyclopenta[c]pyrrol-2 (1H)-yl) methanone]	
		22 nM	96.23%			9.68 nM	O=C(C1CCCC1)N1CCC(c2ccc(-c3cn[nH]c3)c(F)c2F)CC1 [Compound 98, cyclopentyl(4-(2,3-difluoro-4-(1H-pyrazol-4-yl)phenyl)piperidin-1-yl) methanone]	absorption and blood exposure after oral administration (in words) [4]: well absorbed and exhibit high blood exposure; AUC(0-inf) ([4]; male, SD, rat, plasma): 98600 ng·h/mL; Cmax ([4]; male, SD, rat, plasma): 8700 ng/mL; Tmax ([4]; male, SD, rat, plasma): 3 h; half-life ([4]; male, SD, rat, plasma): 2.38 h; AUC(0-t) ([4]; male, SD, rat, plasma, read-out: AUC0-24): 98400 ng·h/mL
